Data on 27 molecules can be found in ChEMBL document CHEMBL5634152, “The discovery of water-soluble indazole derivatives as potent microtubule polymerization inhibitors” (Eur J Med Chem, 2023).

In brackets after ≈: the same amount, converted by molar mass. Activity calls are given as the source filed them. No cut-off for these calls is given here.

The subject of data set [1] is A549. Kind of data set: cells. Conditions: Homo sapiens.
Description: Antiproliferative activity against human A549 cells assessed as cell growth inhibition incubated for72 hrs by MTT assay
The next data set relates to Huh-7. Kind of data set: cells. The following applies: Homo sapiens.
A further data set concerns T-24. Kind of data set: cells. The following applies: Homo sapiens.
The target in a further data set is Tubulin (Homo sapiens) (UniProt P68371+Q9H4B7+P0DPH7+P68366+Q13509+Q71U36+P04350+Q3ZCM7+P07437+P68363+Q9BQE3+Q6PEY2+Q13885+Q9BVA1+Q9BUF5). Kind of data set: Binding affinity to tubulin polymerization at colchicine-binding site in human A549 cells assessed as N,N'-ethylene- bis(iodoacetamide)/beta-tubulin adduct formation at 5 to 25 uM incubated for 2 hrs by chemiluminescence based assay. Format: cell-based. Conditions: dose 5-25 µM.

A further data set has as its system A549/TR. Kind of data set: Antiproliferative activity against human A549/Taxol cells assessed as cell growth inhibition incubated for72 hrs by MTT assay. It counts as functional, cell-based.
The nature of data set [2]: Resistance index, ratio of IC50 for human A549/Taxol cells to IC50 for human A549 cells. Format: functional.
Data set [3] can be described thus: Aqueous solubility of compound in pH 7.4 at 10 mg/ml by HPLC analysis. It counts as physicochemical. The following applies: buffer, read-out: solubility.
A short description of data set [4]: Lipophilicity, logP of compound in n-octanol-water at 5 mg/ml incubated for 8 hrs by HPLC analysis. Format: physicochemical.
Data set [5] concerns A549. Kind of data set: Antitumor activity against human A549 cells xenografted in Balb/c nude mouse assessed as tumor growth inhibition at 25 mg/kg, IG qd for 21 days relative to control. It counts as functional. The following applies: A549, po, 504 h, time 21 day, read-out: TGI.

Description for Huh-7: Antiproliferative activity against human Huh-7 cells assessed as cell growth inhibition incubated for72 hrs by MTT assay
Description for T-24: Antiproliferative activity against human T-24 cells assessed as cell growth inhibition incubated for72 hrs by MTT assay

Consider `COc1cc(-n2ncc3ccc(-c4ccncc4)cc32)cc(OC)c1OC`, for which the IC50 in the data set with A549 [1] was 15200 nM; in the data set with Huh-7 it was 9220 nM; in the data set with T-24, 16400 nM.
For `COc1ccc(-c2ccc3cnn(-c4cc(OC)c(OC)c(OC)c4)c3c2)cc1` the same measures were 92 nM, 100 nM and 110 nM.
For `COc1cc(-n2nc(C)c3ccc(-c4ccc(C)cc4)cc32)cc(OC)c1OC` the same measures were 190 nM, 120 nM and 140 nM.
`CC[C@]1(O)C[C@H]2CN(CCc3c([nH]c4ccccc34)[C@@](C(=O)OC)(c3cc4c(cc3OC)N(C=O)[C@H]3[C@@](O)(C(=O)OC)[C@H](OC(C)=O)[C@]5(CC)C=CCN6CC[C@]43[C@@H]65)C2)C1`: on Tubulin (Homo sapiens), the outcome was inactive.
Regarding `COc1cc(-n2ncc3ccc(-c4ccc(C)cc4)cc32)cc(OC)c1OC`, the IC50 with A549 [1] turned out to be 45 nM; with Huh-7, 51 nM; in the data set with T-24, 92 nM.
On to `COc1cc(-c2ccc3c(C)nn(-c4ccc5c(c4)CCO5)c3c2)cc(OC)c1OC`, for which the IC50 in the data set with A549 [1] amounted to 5300 nM; in the data set on Huh-7 it was 1450 nM; in the data set on T-24 it was 4820 nM.
For `COc1cc(-n2ncc3ccc(-c4ccc5[nH]ccc5c4)cc32)cc(OC)c1OC` the same measures were 120 nM, 140 nM and 170 nM.
With `COc1ccc(-n2nc(C)c3ccc(-c4cc(OC)c(OC)c(OC)c4)cc32)cn1`, the half-maximal inhibitory concentration (IC50) in the data set with A549 [1], in the data set on Huh-7 and with T-24 was above 25000 nM throughout.
For the molecule `COc1ccc(-n2ncc3ccc(-c4cc(OC)c(OC)c(OC)c4)cc32)cn1`, the IC50 in the data set with A549 [1], with Huh-7 and with T-24 was above 25000 nM each time.
Take `COc1ccc(-c2ccc3c(C)nn(-c4cc(OC)c(OC)c(OC)c4)c3c2)cc1`: the half-inhibitory concentration (IC50) is 490 nM with A549 [1], 110 nM in the data set with Huh-7 and 280 nM in the data set on T-24.
Regarding `COc1cc(-n2ncc3ccc(-c4cccc5[nH]ccc45)cc32)cc(OC)c1OC`, the IC50 stood at 25 nM in the data set with A549/TR, 25 nM in the data set with A549 [1], 28 nM in the data set with Huh-7 and 30 nM with T-24. For the same molecule, in data set [2], the “Ratio IC50” value is 1. Further, the solubility in [3] was 5.09 µg/mL (≈ 12.7 µM). The molecule also registered a logP at 8 h in [4] of 3.1.
On to `COc1cc(-n2ncc3ccc(-c4ccccc4)cc32)cc(OC)c1OC`, for which the half-inhibitory concentration (IC50) in the data set with A549 [1] is 52 nM; in the data set on Huh-7, 42 nM; with T-24 it was 80 nM.
Regarding `COc1cc(-n2ncc3ccc(-c4ccc5c(c4)CCO5)cc32)cc(OC)c1OC`, the IC50 was 98 nM with A549 [1], 79 nM in the data set with Huh-7 and 110 nM in the data set with T-24.
For the molecule `CCOc1ccc(-c2ccc3cnn(-c4cc(OC)c(OC)c(OC)c4)c3c2)cc1`, the IC50 in the data set on A549 [1] came to 1450 nM; in the data set with Huh-7, 3730 nM; in the data set with T-24, 2280 nM.
For `COc1ccc(-n2nc(C)c3ccc(-c4cc(OC)c(OC)c(OC)c4)cc32)cc1` the same measures were above 25000 nM, above 25000 nM and above 25000 nM.
With `COc1ccc(-c2ccc3c(C)nn(-c4cc(OC)c(OC)c(OC)c4)c3c2)cn1`, the IC50 with A549 [1] turned out to be 1510 nM; in the data set with Huh-7, 1060 nM; in the data set with T-24, 2230 nM.
For `COc1cc(-c2ccc3c(C)nn(-c4ccc(OC(F)(F)F)cc4)c3c2)cc(OC)c1OC` the same measures were 19500 nM, above 25000 nM and above 25000 nM.
`COc1cc(-n2ncc3ccc(-c4ccc5c(ccn5C)c4)cc32)cc(OC)c1OC`: the IC50 with A549 [1] is 63 nM; in the data set with Huh-7 it was 73 nM; in the data set on T-24, 120 nM.
Turning to `CC(=O)O[C@H]1C(=O)[C@@]2(C)[C@H]([C@H](OC(=O)c3ccccc3)[C@]3(O)C[C@H](OC(=O)[C@H](O)[C@@H](NC(=O)c4ccccc4)c4ccccc4)C(C)=C1C3(C)C)[C@]1(OC(C)=O)CO[C@@H]1C[C@@H]2O` [PACLITAXEL], the IC50 with A549/TR was 5650 nM. In addition, the “Ratio IC50” value in data set [2] was 403.8.
`COc1ccc(-c2ccc3cnn(-c4cc(OC)c(OC)c(OC)c4)c3c2)cn1`: the IC50 in the data set on A549 [1] is 150 nM; in the data set on Huh-7, 330 nM; with T-24, 190 nM.
Regarding `COc1ccc(-n2ncc3ccc(-c4cc(OC)c(OC)c(OC)c4)cc32)cc1`, the IC50 in the data set with A549 [1], in the data set on Huh-7 and in the data set on T-24 was above 25000 nM throughout.
In the case of `COc1cc(-c2ccc3cnn(-c4ccc(C)cc4)c3c2)cc(OC)c1OC`, the IC50 in the data set on A549 [1], in the data set with Huh-7 and in the data set with T-24 was above 25000 nM in each case.
On to `COc1cc(-c2ccc3c(C)nn(-c4ccc(C)cc4)c3c2)cc(OC)c1OC`, for which the IC50 in the data set on A549 [1], in the data set on Huh-7 and with T-24 was above 25000 nM in each case.
Take `COc1cc2c(c(OC)c1OC)-c1ccc(OC)c(=O)cc1[C@@H](NC(C)=O)CC2` [COLCHICINE]: the IC50 in the data set with Huh-7 came to 24 nM; in the data set with T-24 it was 46 nM.
As to `COc1cc(-n2ncc3ccc(-c4ccc(F)cc4)cc32)cc(OC)c1OC`, the IC50 in the data set with A549 [1] came out at 90 nM; in the data set with Huh-7 it was 110 nM; with T-24 it was 270 nM.
For `COc1cc(-n2ncc3ccc(-c4ccc(Cl)cc4)cc32)cc(OC)c1OC` the same measures were 200 nM, 150 nM and 320 nM.
`COc1ccc2c(Nc3cc(OC)c(OC)c(OC)c3)n[nH]c2c1`: the IC50 was determined as 91 nM with A549/TR, 60 nM in the data set on A549 [1], 54 nM in the data set with Huh-7 and 130 nM in the data set on T-24. Besides, the “Ratio IC50” value in data set [2] is recorded as 1.5. Besides, the solubility in data set [3] stood at 3.48 µg/mL (≈ 10.6 µM). The molecule further yielded a logP at 8 h in data set [4] of 3.7. In the data set on A549 [5], the inhibition in vivo at 25 mg/kg worked out at 47.8%.
